Experiments:
[1] = tested on: IL-6; assay: In vivo dose finding: plasma IL-6 after LPS challenge; set-up: species or system mouse; settings: 50 µg to 50 mg/kg-BW/day in drinking water, 2 weeks; LPS 0.4 mg/kg-BW i.p.; 5 and 50 mg/kg most significant
Experimental: We then initiated dose response and safety studies in mice to determine testing dosages and safety of DHCA and Mal-gluc. C57BL/6 mice were treated with either DHCA (doses ranging from 50 µg to 50 mg/kg-BW/day) or Mal-gluc (doses ranging from 50 ng to 5 mg/kg-BW/day) for 2 weeks to simulate long-term administration. Mice treated with DHCA were challenged with intraperitoneal (i.p.) injection of 0.4 mg/kg-BW LPS and plasma levels of IL-6 were measured 6 h post injection. […] Following common discovery-stage practices, we measured the plasma levels of alkaline phosphatase (ALP), aspartate aminotransferase (AST), and alanine aminotransferase (ALT) for liver function and blood urea nitrogen (BUN) for renal function.
Male C57BL/6 J mice (8-week-old) were placed on a polyphenol-free AIN-93M diet and treated with various doses of DHCA (vehicle, 50 µg, 500 µg, 5 mg, and 50 mg/kg-BW/day), delivered through their drinking water for two weeks. Animals were then sacrificed and plasma was collected for routine biochemistry panel analysis including ALP, ALT, and AST for liver function and blood urea nitrogen (BUN) content for kidney function. A separate group of mice was similarly treated and challenged with an i.p. injection of 0.4 mg/kg body weight LPS and plasma was collected 6 h post injection for IL-6 analysis. […]

[2] = tested on: Rac1; assay: Rac1 expression in E18 MSN-enriched primary culture (screening, dose response); format: cell-based, mouse
Description: BDPP contains a variety of polyphenols. Orally consumed polyphenols are typically bioavailable in various organs and tissues as metabolites (phase II polyphenol conjugates and phenolic acids) following xenobiotic metabolism and gastrointestinal microbiome fermentation. It is possible that some metabolites may counteract the positive effect of the others. Therefore, if supplied as BDPP, the overall benefits might be reduced due to potential ‘cancellation’ effects. By identifying individual metabolites that selectively target key pathological mechanisms (e.g., Rac1 and IL-6) we can greatly improve the efficacy. We and others recently identified 21 BDPP-derived phenolic metabolites that accumulate in blood and/or in the CNS (14 polyphenolic metabolites and 7 phenolic acids, Supplementary Table 1)[25], [28], [33], among which 14 are currently accessible, [34]. We initiated a high-throughput screen of these metabolites for their ability to modulate IL-6 and Rac1. […]
Total RNA from MSN-enriched cultures or brain NAc was isolated using the RNeasy Mini Kit (Qiagen, Valencia, CA, USA) and reverse transcribed. Gene expression was measured in four replicates by quantitative RT-PCR using Maxima SYBR Green master mix (Fermentas) in ABI Prism 7900HT. […]

[3] = tested on: Rac1 promoter histone H3 acetylation / H3K27 trimethylation; assay: Quantitative ChIP along the Rac1 promoter in MSN-enriched primary cultures; format: cell-based, mouse
Description: Stress-induced reduction of Rac1 expression is associated with a repressed chromatin state surrounding the promoter region of Rac1 in the NAc[11]. Since Mal-gluc can cross the BBB, we hypothesized that Mal-gluc may promote Rac1 expression, in part, by modulating chromatin acetylation. We first assessed the effect of Mal-gluc on HDACs that play key roles in chromatin deacetylation. […] Using site directed quantitative chromatin immunoprecipitation (qCHIP), we examined the permissive histone H3 acetylation (AcH3) in Mal-gluc treated MSN-enriched primary cultures.
Site-directed qChIP was performed for pan-acH3 and H3K27me3 as described previously with modification. Neurons were washed once with PBS and crosslinked in 1% formaldehyde for 15 min, quenched by glycine at a final concentration of 125 mM. Neurons were then rinsed with cold PBS containing protease inhibitor cocktail (Sigma) and scraped off the plate. Cells were resuspended and sonicated with a Bioruptor (15 cycles, 30 sec on/off), which produces chromatin fragments ~350 bp in length. […] Levels of specific histone modifications along the Rac1 promoter were determined by measuring the amount of acetylated or methylated histone-associated DNA using quantitative real-time PCR as previously described.

SMILES	plasma IL-6 6 h post LPS injection [1]	primary screening, Rac1 expression ([2]; 9 brain bioavailable metabolites screened)	EC50 ([2]; E18 MSN-enriched primary culture, 16 h, read-out: calculated EC50, increase of Rac1 expression) [nM]	repressive trimethylation of the Rac1 promoter (H3K27) [3]	permissive histone H3 acetylation (AcH3) of Rac1 ([3]; compared to vehicle, across the region surveyed)
O=C(O)CCc1ccc(O)c(O)c1 [DHCA, 3(3,4-dihydroxy-phenyl) propionic acid]	dose-dependent suppression of IL-6				
COc1cc(-c2[o+]c3cc(O)cc(O)c3cc2O[C@@H]2O[C@H](CO)[C@@H](O)[C@H](O)[C@H]2O)cc(OC)c1O [Mal-gluc]		significantly increased Rac1 expression	3.52	no effect on the repressive trimethylation	significantly increased permissive acetylation
